# Experimental data published in patent US6426339B1, “Formulations and methods for providing prolonged local anesthesia” (Children's Medical Center Corporation, priority 1996, dated 2002).
# Entries after “also recorded” stand apart in the source; their conditions may differ.
# Experiments:
# sciatic nerve [1] = assay: Sensory block: additives in the injection fluid with bupivacaine microspheres (Table 2); format: in vivo, rat; details: for sensory blockade latency: with bupivacaine microspheres, FIG. 5A
# Method: Sensory anesthesia was measured by the time required for each rat to withdraw its hind paw from a 56° C. plate (IITC Life Science Instruments, Model 35-D, Woodland Hills, Calif.). The rats were allowed to adjust to their surroundings in a quiet room for at least 30 minutes before testing. The rats were held with a cloth gently. wrapped above their waist to restrain the upper extremities and obstruct vision. The rats were positioned to stand with one hind paw on a hot plate and the other on a room temperature plate. With a computer data collection system to (Apple IIe with a footpad switch), latency to withdraw each hind paw to the hot plate was recorded by alternating paws and allowing at least fifteen seconds of recovery between each measurement. If no withdrawal occurred from the hot plate within 12 seconds, the trial was terminated to prevent injury and the termination time was recorded. Testing ended after five measurements per side, the high and low points were disregarded, and the mean of the remaining three points was calculated for each side. Animals were handled in accordance with institutional, state and federal guidelines.
# (§1) At least five rats were used in each test.
# (§2) Sensory blockade or anesthesia effect was examined using art-known techniques. In addition, motor tests were performed at each time point to examined each rat's ability to hop and to place weight on it's hind leg by art-known techniques. Each leg was tested three times, and the latency of the contralateral leg was tested to provide a control. The animals were handled and cared for according to institution, state, and federal regulations.
# sciatic nerve [2] = assay: Motor block: additives in the injection fluid with bupivacaine microspheres (Table 2); format: in vivo, rat
# Source text: The rats were behaviorally tested for sensory and motor anesthesia in a quiet observation room. Testing was only performed in rats showing appropriate baseline hot plate latencies after at least-one week of testing. In all testing conditions, the experimenter recording the behavior was unaware of the side containing the local anesthetic. To assess motor anesthesia, a 4-point scale based on visual observation was devised: (1) normal appearance, (2) intact dorsiflexion of foot with an impaired ability to splay toes when elevated by the tail, (3) toes and foot remained plantar flexed with no splaying ability, and (4) loss of dorsiflexion, flexion of toes, and impairment of gait. For graphing clarity, partial motor anesthesia equals a score of 2 and dense motor anesthesia is a score of either 3 or 4.
# as §1, §2
# sciatic nerve [3] = assay: Restoration of waning sensory anesthesia by dexamethasone (hot plate latency); format: in vivo, rat; details: 0.032 mg/kg injected at the original site 6 hours after bupivacaine microspheres
# Method: Sensory anesthesia was measured by the time required for each rat to withdraw its hind paw from a 56° C. plate (IITC Life Science Instruments, Model 35-D, Woodland Hills, Calif.). The rats were allowed to adjust to their surroundings in a quiet room for at least 30 minutes before testing. The rats were held with a cloth gently. wrapped above their waist to restrain the upper extremities and obstruct vision. The rats were positioned to stand with one hind paw on a hot plate and the other on a room temperature plate. With a computer data collection system to (Apple IIe with a footpad switch), latency to withdraw each hind paw to the hot plate was recorded by alternating paws and allowing at least fifteen seconds of recovery between each measurement. If no withdrawal occurred from the hot plate within 12 seconds, the trial was terminated to prevent injury and the termination time was recorded. Testing ended after five measurements per side, the high and low points were disregarded, and the mean of the remaining three points was calculated for each side. […]
# Sensory latency was determined by the hot plate foot withdrawal method described above. […]
# sciatic nerve [4] = assay: Sciatic blockade by liquid bupivacaine and/or dexamethasone in solution (Table 1); format: in vivo, rat
# Method: as §1, §2
# [5] = 0.05% in the suspending medium
# Method: Male Sprague-Dawley Charles River Rats, weighing between 200 and 350 grams were used to test the ability of each additive to prolong blockade or anesthesia effect. 150 mg of bupivacaine per kg of rat and a known concentration of each of the additives were placed in 0.6 mls of injection vehicle (5 g/L medium molecular weight carboxymethylcellulose, 1 g/L Tween 80). If the additive was a solid, it was dissolved in ethanol and aliquots which varied in concentrations from 0.0220 mg/kg of rat, and added to the injection fluid. If the additive was in liquid form, it was added directly to the injection fluid. The microsphere/additive mixture was vortexed (Scientific Industries Vortex Genie®) at maximum speed for three minutes prior to injection. The injection was performed while the rats were under general anesthetic, by locating the greater trochanter and injecting slightly below and proximal to it. At least five rats were used in each test.
# [6] = additive 0.032 mg/Kg rat with bupivacaine microspheres
# [7] = additive 0.25 mg/Kg rat with bupivacaine microspheres
# [8] = additive 0.8 mg/Kg rat with bupivacaine microspheres
# [9] = additive 2.0 mg/Kg rat with bupivacaine microspheres
# [10] = in the suspending medium with bupivacaine microspheres
# [11] = additive 0.02 mg/Kg rat with bupivacaine microspheres
# [12] = additive 0.14 mg/Kg rat with bupivacaine microspheres
# [13] = additive 0.125 mg/Kg rat with bupivacaine microspheres
# [14] = additive 1.25 mg/Kg rat with bupivacaine microspheres
# [15] = additive 1.0 mg/Kg rat with bupivacaine microspheres
# [16] = additive 1.7 mg/Kg rat with bupivacaine microspheres
# [17] = additive 0.1 mg/Kg rat with bupivacaine microspheres
# [18] = additive 3.1 mg/Kg rat with bupivacaine microspheres
# [19] = additive 0.01 mg/Kg rat with bupivacaine microspheres
# [20] = additive 6.3 mg/Kg rat with bupivacaine microspheres
# [21] = additive 2.1 mg/Kg rat with bupivacaine microspheres
# [22] = additive 20 mg/Kg rat with bupivacaine microspheres
# [23] = additive 10 mg/Kg rat with bupivacaine microspheres
structure (smiles),measurement,setting,value
"C[C@H]1C[C@H]2[C@@H]3CCC4=CC(=O)C=C[C@]4(C)[C@@]3(F)[C@@H](O)C[C@]2(C)[C@@]1(O)C(=O)CO [Betamethasone, betamethasone]",Sensory block,sciatic nerve [1]; [6],19.0 ± 4.0 h
same,Sensory block,sciatic nerve [1]; [7],36.0 ± 10.0 h
same,Sensory block,sciatic nerve [1]; [8],46.0 ± 7.0 h
same,Sensory block,sciatic nerve [1]; [9],44.0 ± 13.0 h
same,duration of prolonged blockade or local anesthesia effect,sciatic nerve [1]; [10],up to 45 hours
same,Motor block,sciatic nerve [2]; [6],15.0 ± 4.0 h
same,Motor block,sciatic nerve [2]; [7],38.0 ± 11.0 h
same,Motor block,sciatic nerve [2]; [8],39.0 ± 5.0 h
same,Motor block,sciatic nerve [2]; [9],39.0 ± 11.0 h
C[C@@H]1C[C@H]2[C@@H]3CCC4=CC(=O)C=C[C@]4(C)[C@@]3(F)[C@@H](O)C[C@]2(C)[C@@]1(O)C(=O)CO [dexamethasone],hot plate sensory latency after restoration,sciatic nerve [3],about 11 sec
same,Sensory block,sciatic nerve [1]; [11],17.0 ± 11.0 h
same,Sensory block,sciatic nerve [1]; [12],47.0 ± 8.0 h
same,Sensory block,sciatic nerve [1]; [9],36.0 ± 19.0 h
same,sensory blockade latency,sciatic nerve [1]; after 50 hours,about 7 seconds
same,sensory blockade latency,sciatic nerve [1]; after 100 hours,about 2.5 seconds
same,sensory blockade latency,sciatic nerve [1]; initial,12 s
same,Motor block,sciatic nerve [2]; [11],19.0 ± 8.0 h
same,Motor block,sciatic nerve [2]; [12],38.0 ± 5.0 h
same,Motor block,sciatic nerve [2]; [9],34.0 ± 12.0 h
same,LENGTH OF Blockade or anesthesia effect,sciatic nerve [4]; bupivacaine 3 mg/kg rat plus dexamethasone 0.16 mg/kg rat,2 to 3 h
same,LENGTH OF Blockade or anesthesia effect,sciatic nerve [4]; bupivacaine 3 mg/kg rat plus dexamethasone 1.6 mg/kg rat,2 to 3 h
same,LENGTH OF Blockade or anesthesia effect,"sciatic nerve [4]; dexamethasone 0.16 mg/kg rat, no bupivacaine",0 h
CCCCN1CCCCC1C(=O)Nc1c(C)cccc1C (stereo not shown) [bupivacaine],effect on duration of blockade obtained using bupivacaine microspheres (in words),sciatic nerve [1]; addition of 0.005% (w/w) to the suspending medium,did not result in a prolongation
same,LENGTH OF Blockade or anesthesia effect,"sciatic nerve [4]; bupivacaine 3 mg/kg rat, no dexamethasone",2 to 3 h
C[C@]12CC[C@@H]3c4ccc(O)cc4CC[C@H]3[C@@H]1CC[C@@H]2O [Estradiol],Sensory block,sciatic nerve [1]; [13],11.0 ± 6.0 h
same,Sensory block,sciatic nerve [1]; [14],8.0 ± 1.0 h
same,degree of prolongation of blockade (in words),sciatic nerve [1]; [10],no blockade-prolonging effect
same,Motor block,sciatic nerve [2]; [13],12.0 ± 6.0 h
same,Motor block,sciatic nerve [2]; [14],9.0 ± 2.0 h
C[C@]12CC[C@H]3[C@@H](CCC4=CC(=O)CC[C@@]43C)[C@@H]1CC[C@@H]2O [Testosterone],Sensory block,sciatic nerve [1]; [15],7.0 ± 2.0 h
same,Sensory block,sciatic nerve [1]; [16],15.0 ± 5.0 h
same,degree of prolongation of blockade (in words),sciatic nerve [1]; [10],mild prolongation
same,Motor block,sciatic nerve [2]; [15],6.0 ± 1.0 h
same,Motor block,sciatic nerve [2]; [16],15.0 ± 5.0 h
CC(C)CCC[C@@H](C)[C@H]1CC[C@H]2[C@@H]3CC=C4C[C@@H](O)CC[C@]4(C)[C@H]3CC[C@]12C [Cholesterol],prolongation of blockade compared with bupivacaine microspheres (in words),sciatic nerve [1]; 0.3 mg/kg incorporated into bupivacaine loaded microspheres,did not result in a prolongation of blockade or anesthesia effect
same,Sensory block,sciatic nerve [1]; [17],4.0 ± 0.4 h
same,Sensory block,sciatic nerve [1]; [18],8.0 ± 3.0 h
same,Motor block,sciatic nerve [2]; [17],4.0 ± 1.0 h
same,Motor block,sciatic nerve [2]; [18],5.0 ± 1.0 h
CNC[C@H](O)c1ccc(O)c(O)c1 [Epinephrine],systemic toxicity (in words),[5],"considerable systemic toxicity, but no deaths"
same,Sensory block,sciatic nerve [1]; [19],12.0 ± 6.0 h
same,Sensory block,sciatic nerve [1]; [17],14.0 ± 5.0 h
same,degree of prolongation of blockade (in words),sciatic nerve [1]; [10],did not substantially prolong
same,Motor block,sciatic nerve [2]; [19],12.0 ± 4.0 h
same,Motor block,sciatic nerve [2]; [17],11.0 ± 3.0 h
O=C(c1ccccc1)c1ccc2n1CCC2C(=O)O (stereo not shown) [Ketoralac],Sensory block,sciatic nerve [1]; [9],6.0 ± 0.7 h
same,Sensory block,sciatic nerve [1]; [20],8.0 ± 2.0 h
same,Motor block,sciatic nerve [2]; [9],7.0 ± 0.4 h
same,Motor block,sciatic nerve [2]; [20],10.0 ± 4.0 h
CC(=O)[C@H]1CC[C@H]2[C@@H]3CCC4=CC(=O)CC[C@]4(C)[C@H]3CC[C@]12C [Progesterone],Sensory block,sciatic nerve [1]; [9],8.0 ± 1.0 h
same,Motor block,sciatic nerve [2]; [9],6.0 ± 1.0 h
"C[C@H]1C[C@@H]2[C@H]([C@@H](O)C[C@@]3(C)[C@H]2CC[C@]3(O)C(=O)CO)[C@@]2(C)C=CC(=O)C=C12 [Methylprednisolone, methylprednisolone]",Sensory block,sciatic nerve [1]; [17],20.0 ± 5.0 h
same,Sensory block,sciatic nerve [1]; [21],28.0 ± 6.0 h
same,Sensory block,sciatic nerve [1]; [22],34.0 ± 11.0 h
same,Motor block,sciatic nerve [2]; [17],13.0 ± 4.0 h
same,Motor block,sciatic nerve [2]; [21],28.0 ± 5.0 h
same,Motor block,sciatic nerve [2]; [22],33.0 ± 9.0 h
"C[C@]12CCC(=O)C=C1CC[C@@H]1[C@@H]2[C@@H](O)C[C@@]2(C)[C@H]1CC[C@]2(O)C(=O)CO [Hydrocortisone, hydrocortisone]",Sensory block,sciatic nerve [1]; [17],10.0 ± 3.0 h
same,Sensory block,sciatic nerve [1]; [14],15.0 ± 5.0 h
same,Sensory block,sciatic nerve [1]; [23],36.0 ± 10.0 h
same,degree of prolongation of blockade (in words),sciatic nerve [1]; [10],"mild, but statistically significant prolongation; also recorded: cannot be made as effective as dexamethasone"
same,Motor block,sciatic nerve [2]; [17],10.0 ± 3.0 h
same,Motor block,sciatic nerve [2]; [14],16.0 ± 3.0 h
same,Motor block,sciatic nerve [2]; [23],31.0 ± 8.0 h
